One data set deals with HepG2 cells. Kind of data set: Anchorage independent growth colony formation assay, HepG2. Type of data set: cell-based, Human. The following applies: for colony formation, % of control: HepG2, single agent, 8 days. Here is the method:
(§1) Cell Lines/Cells. Human cell lines HepG2 and SK-Hep-1 cells were obtained from American Type Culture Collection (ATCC; Manassas, Va.). Cells were cultured in DMEM (Dulbecco's Modified Eagle's Medium) (Mediatech; Mannasas, Va.) with 10% Premium FBS (Lonza, Walkersville, Md.).
(1) Single Agent Colony Formation Assay. Nobel Agar (1.2 grams; BD; Franklin Lakes, N.J.) was placed in a 100-mL sterile bottle. Sterile water (100 mL) was added and microwaved until the agar boiled. Equal volumes of agar and 2×RPMI medium (ECE Scientific; Doylestown, Pa.) were mixed and 300 μL were transferred to each well in a 24-well flat bottom plate (BD; Franklin Lakes, N.J.). Plates were kept at 4° C. until the agar solidified. Cultures of HepG2 and SK-Hep-1 cells were harvested and resuspended in culture medium at 3.6×10^3 cells/mL. Equal volumes of agar, 2×RPMI, and cell suspension (1:1:1) were mixed in a sterile tube and 500 μL/well were immediately transferred into the 24-well plates. Plates were kept at 4° C. until the agar solidified. Culture medium (500 μL) containing compound or DMSO was added to each well (final DMSO concentration for each treatment was 0.2%). Compound 1 was tested at final concentrations of 0.1, 0.3, 1, 3, 10 and 30 μM. Cell treatments were set up in triplicate. Cells were incubated for 8-10 days at 37° C. in a 5% CO2 atmosphere. Photographs (2× magnification) of each well were taken using a Nikon DXM1200 Digital Camera and Nikon ACT1 software and saved as a TIFF file. ImageQuant TL (GE Healthcare; Piscataway, N.J.) Colony Count Software was used to count colonies. (2) Combination Study Colony Formation Assay. Nobel Agar (1.2 grams; BD; Franklin Lakes, N.J.) was placed in a 100-mL sterile bottle. Sterile water (100 mL) was added and microwaved until the agar boiled. Equal volumes of agar and 2×RPMI medium (ECE Scientific; Doylestown, Pa.) were mixed and 300 μL were transferred to each well in a 24-well flat bottom plate (BD; Franklin Lakes, N.J.). Plates were kept at 4° C. until the agar solidified. Cultures of HepG2 and SK-Hep-1 cells were harvested and resuspended in culture medium at 3.6×10^3 cells/mL. Equal volumes of agar, 2×RPMI, and cell suspension (1:1:1) were mixed in a sterile tube and 500 µL/well were immediately transferred into the 24-well plates. Plates were kept at 4° C. until the agar solidified. Culture medium (500 μL) containing compound or DMSO was added to each well (final DMSO concentration for each treatment was 0.2%). Cells were treated with single treatment as follows: Compound 1 was tested at final concentrations of 0.1 and 0.3 μM. Cell treatments were set up in triplicate. Cells were incubated for 8-10 days at 37° C. in a 5% CO2 atmosphere. Photographs (2× magnification) of each well were taken using a Nikon DXM1200 Digital Camera and Nikon ACT1 software and saved as a TIFF file. ImageQuant TL (GE Healthcare; Piscataway, N.J.) Colony Count Software was used to count colonies.
(§2) Significance versus the DMSO control was calculated using One Way ANOVA and Dunnett's Post test or unpaired t tests using GraphPad Prism v5.01.

A further data set deals with SK-Hep-1 cells. Description: Anchorage independent growth colony formation assay, SK-Hep-1. Type of data set: cell-based, Human. Here is the method:
as §1
(1) Single Agent Colony Formation Assay. Nobel Agar (1.2 grams; BD; Franklin Lakes, N.J.) was placed in a 100-mL sterile bottle. Sterile water (100 mL) was added and microwaved until the agar boiled. Equal volumes of agar and 2×RPMI medium (ECE Scientific; Doylestown, Pa.) were mixed and 300 μL were transferred to each well in a 24-well flat bottom plate (BD; Franklin Lakes, N.J.). Plates were kept at 4° C. until the agar solidified. Cultures of HepG2 and SK-Hep-1 cells were harvested and resuspended in culture medium at 3.6×10^3 cells/mL. Equal volumes of agar, 2×RPMI, and cell suspension (1:1:1) were mixed in a sterile tube and 500 μL/well were immediately transferred into the 24-well plates. Plates were kept at 4° C. until the agar solidified. Culture medium (500 μL) containing compound or DMSO was added to each well (final DMSO concentration for each treatment was 0.2%). Compound 1 was tested at final concentrations of 0.1, 0.3, 1, 3, 10 and 30 μM. Cell treatments were set up in triplicate. Cells were incubated for 8-10 days at 37° C. in a 5% CO2 atmosphere. Photographs (2× magnification) of each well were taken using a Nikon DXM1200 Digital Camera and Nikon ACT1 software and saved as a TIFF file. ImageQuant TL (GE Healthcare; Piscataway, N.J.) Colony Count Software was used to count colonies. (2) Combination Study Colony Formation Assay. Nobel Agar (1.2 grams; BD; Franklin Lakes, N.J.) was placed in a 100-mL sterile bottle. Sterile water (100 mL) was added and microwaved until the agar boiled. […]
as §2

A further data set deals with WSU-DLCL2 xenograft. Description: DLBCL xenograft model (WSU-DLCL2). It is filed as in vivo, SCID mice. The following applies: for tumor volume reduction (TVR) vs vehicle: initial study, oral QD, end of 3-week dosing, Day 35. Here is the method:
Severe combined immunodeficiency (SCID) mice were implanted with human DLBCL cell line (WSU-DLCL2) into the flank. Treatment of compounds started between Day 11 and Day 14 after cell inoculation. Randomized groups of mice (n=9 to 10/group) were treated with the single agents (Compound 1, Compound A or Compound AA) or the combination of Compound 1/Compound A, Compound A/Compound AA, or Compound 1/Compound AA. Compounds were administered orally on a once daily (Compound 1 and Compound A) or twice daily […] schedule for 21 days. The positive control consisted of CHOP therapy (combination of cyclophosphamide, doxorubicin, vincristine and prednisone). Compound 1 and Compound A were formulated in CMC-Tween (carboxymethylcellulose/Tween 80/deionized water). Compound AA was suspended in DSP (dimethylsulphoxide/solutol/phosphate buffered saline).
Initial studies were conducted in order to determine the antitumor activity of Compound 1 and to identify a dose level for the combination studies. In the WSU-DLCL2 xenograft model, Compound 1 inhibited tumor growth in a dose-dependent fashion. […] In a subsequent combination study, Compound 1 was dosed at 10 mg/kg, once daily (QD). Compound A and Compound AA were dosed at 30 mg/kg (QD) and 50 mg/kg (BID), respectively.

The subject of a further data set is OCI-Ly10 xenograft. Description: OCI-Ly10 DLBCL xenograft model. Type of data set: in vivo, SCID mice. Conditions: extended schedule qd×28/4/21: Compound A 10 mg/kg, Compound 1 3 mg/kg. The source says:
OCI-Ly10 cells are derived from a diffuse-large B-cell lymphoma, a type of non-Hodgkins lymphoma. Female SCID mice (Fox Chase SCID®, CB 17/Icr-Prkdcscid, Charles River), characterized by severe combined T and B cell immunodeficiency, were 10 weeks old, with body weights ranging from 15.4 to 24.2 g, on Day 1 of this study. In brief, female CB.17 SCID mice were inoculated with 5×10^6 OCI-Ly10 cells subcutaneously, and tumors were allowed to grow to approximately 100-150 mm^3 before stratification into treatment groups, so as to yield groups with comparably sized tumors prior to treatment. In addition to the efficacy treatment groups, some mice were stratified into short-term treatment groups and their tumors were collected 4 hours post final dosing in groups that received saline, 30 mg/kg or 10 mg/kg Compound A, or 3 mg/kg Compound 1 once daily for seven days, starting on day 27. Frozen, and fixed paraffin-embedded, samples were analyzed. In the efficacy arm of the study, dosing began on Day 1 (D1) in 12 groups of mice (n=10/group) with established subcutaneous tumors (mean volumes, 120-129 mm^3). Compound A (at two dose levels) and Compound 1 (at one dose level) were each administered once daily for 28 days (qd×28). Control mice received the vehicle, 5% DMSO/15% Solutol® HS15/80% PBS, p.o. b.i.d.×28. On D29 a 21-day dosing extension, from day 33 to day 53, in the control and five test groups was implemented, resulting in b.i.d.×28/4/21 or qd×28/4/21 schedules for these groups.
Tumors were calipered twice weekly, and each mouse in the efficacy study was euthanized when its tumor reached the 1000 mm^3 volume endpoint, or on day 61, whichever came first. Efficacy was determined from tumor growth delay (TGD), defined as the increase in the median time-to-endpoint (TTE) in drug-treated (T) versus vehicle-treated (C) mice, and from the significance of survival extension.

Data set [1] has as its system doxorubicin-resistant Ramos cell xenografts. Kind of data set: CIVO local injection, parental and doxorubicin-resistant RAMOS xenograft, cleaved caspase 3. Conditions: tumors harvested 24 hour post injection. It is filed as in vivo, Nu/Nu mice. As for the experimental part: Anesthetized Nu/Nu mice harboring xenografted tumors were injected with multiple individual compounds or compound combinations, simultaneously, each into a distinct location of the tumor. Precise, controlled delivery of the compounds was evaluated for spatially defined and cellular changes around sites of tumor microinjection across xenograft models of DLBCL. Tumors were resected and injection quality was assessed by IVIS imaging of co-injected near-infrared tracking dye. Sections from representative regions down the z-axis of the tumor were prepared for staining with biomarkers of pathway inhibition and tumor response. Samples were then batch scanned in a Caliper Pannoramic slide scanner, resulting in high resolution images compatible with single cell analysis and subsequent data quantification via Presage's CIVO™ analyzer custom image analysis platform (for technology description, see R. Klinghoffer et al, AACR, 2014 and Presagebio.com).
Mice with parental or doxorubicin-resistant Ramos cell xenografts were injected locally with vehicle (4 μL), Compound 2 (13 μg in 4 μL injected), Compound 1 (39 μg in 4 μL injected), or Vincristine (1.47 μg in 4 μL (400 μM) injected). Tumors were harvested 24 hour post injection.

The mark [2] stands for this setting: combination study, single agents or in combination.

Structures are written as SMILES. Entries after “also recorded” stand apart in the source; their conditions may differ.

As for `CO[C@H]1CC[C@H](N2C(=O)CNc3ncc(-c4ccc(C(C)(C)O)nc4)nc32)CC1` [Compound 1, 7-(6-(2-hydroxypropan-2-yl)pyridin-3-yl)-1-((1r,4r)-4-methoxycyclohexyl)-3,4-dihydropyrazino-[2,3-b]pyrazin-2(1H)-one], the “anti-colony forming activity” value with HepG2 cells (HepG2, concentrations of 0.1 to 100 μM) was “dose-dependent and significant anti-colony forming activity”; with SK-Hep-1 cells (SK-Hep-1, concentrations of 0.1 to 100 μM) it was “dose-dependent and significant anti-colony forming activity”. Also, the “colony formation, % of control” value in the data set on HepG2 cells (0.1 μM) was 74 % of control; in the data set on HepG2 cells (0.3 μM), 57 % of control; with HepG2 cells (1 μM) it was 33 % of control; with HepG2 cells (3 μM), 24 % of control; with HepG2 cells (10 μM) it was 16 % of control; in the data set on HepG2 cells (30 μM) it was 11 % of control. Also, the “colony formation, % of control” value with SK-Hep-1 cells (SK-Hep-1, single agent, 0.3-30 μM, 8-10 days) is listed as 0-45 % of control. Moreover, the “inhibition of colony formation” value in the data set with SK-Hep-1 cells (SK-Hep-1, single agent, 3 μM and higher) is 100%. In the data set with WSU-DLCL2 xenograft (combination study, Day 34, Compound 1 10 mg/kg QD, Compound A 30 mg/kg QD, Compound AA 50 mg/kg BID, oral), the “decrease in tumor volume (TVR) vs vehicle” value was 29%. Besides, the body weight loss result with WSU-DLCL2 xenograft (setting [2]) is “No significant body weight loss”; in the data set on WSU-DLCL2 xenograft (initial study, 1, 3 and 10 mg/kg) it was “No significant body weight loss”. Moreover, the “tumor volume reduction (TVR) vs vehicle” value in the data set with WSU-DLCL2 xenograft (1 mg/kg) is recorded as approximately 22%; with WSU-DLCL2 xenograft (3 mg/kg), approximately 28%. Also, the “tumor growth delay (TGD), %” value in the data set with OCI-Ly10 xenograft was determined as 73%. For the same compound, the PRs / regressions result in the data set on OCI-Ly10 xenograft (alone or combined) is “one”. The “survivors (n=10/group)” value in the data set with OCI-Ly10 xenograft (alone or combined) is “five”. For the same compound, the “tumor growth delay (TGD)” value with OCI-Ly10 xenograft (alone or combined) was determined as 23.8 days.
As to `CCN1C(=O)CNc2ncc(-c3ccc(-c4nc[nH]n4)nc3C)nc21` [Compound 2, 1-ethyl-7-(2-methyl-6-(1H-1,2,4-triazol-3-yl)pyridin-3-yl)-3,4-dihydropyrazino[2,3-b]pyrazin-2(1H)-one], the “sensitivity of doxorubicin resistant vs parental Ramos cells (cleaved caspase 3 vs distance from injection site)” value in data set [1] is “increased sensitivity; also recorded: more sensitive”.
For `C=CC(=O)Nc1cccc(Nc2nc(Nc3ccc(OCCOC)cc3)ncc2F)c1` [Compound AA, N-(3-(5-fluoro-2-(4-(2-methoxyethoxy)phenylamino)pyrimidin-4-ylamino)phenyl)acrylamide], the “antitumor activity” value with WSU-DLCL2 xenograft (combination study, Day 34, Compound 1 10 mg/kg QD, Compound A 30 mg/kg QD, Compound AA 50 mg/kg BID, combinations compared with single agent) is “No significant antitumor activity; also recorded: inactive”. In addition, the body weight loss result in the data set with WSU-DLCL2 xenograft (setting [2]) is recorded as “No significant body weight loss”.
For the compound `CC[C@]1(O)C[C@H]2CN(CCc3c([nH]c4ccccc34)[C@@](C(=O)OC)(c3cc4c(cc3OC)N(C=O)[C@H]3[C@@](O)(C(=O)OC)[C@H](OC(C)=O)[C@]5(CC)C=CCN6CC[C@]43[C@@H]65)C2)C1` [Vincristine, reference compound], the “sensitivity of doxorubicin resistant vs parental Ramos cells (cleaved caspase 3 vs distance from injection site)” value in data set [1] was “resistant”.
